From patent US11542316B2, “S-Arrestin peptides and therapeutic uses thereof” (APITOPE INTERNATIONAL NV, priority 2017, dated 2023)
Ends that are not written are not given here.

Key:
[1] = tested on: SAg-specific hybridoma cells / T cell line with VAVY APC; test: Antigen Processing Independent Presentation System (APIPS) assay, fresh or fixed VAVY APC; format: cell-based, DR3 mice; settings: DR3 hybridoma clone (IL-2, 48 h) or T cell line (IFN-γ, 24 h)
Procedure: (§1) FIG. 2: identification of apitopes within HIP-115. (A) DR3 mice were immunized with SAg and hybridomas were generated. 5×10^4 SAg-specific hybridoma cells were cultured with 5×10^4 fresh or fixed commercial APC (VAVY) cells. T cell proliferation was measured by IL-2 ELISA on supernatants collected after 48 h. The graph represents the mean of duplicate measurements±SEM. (B) DR3 mice were immunized with HIP-115 and a T cell line was established. Ten days after immunization the LN and spleens were harvested and cultured with different concentrations of peptide (0.1-1-2.5 and 5 μg/ml); 2×10^6 cells/ml APC+1×10^6 cells/ml CD4 T cells per well. At day 7 the cells were re-stimulated with the same concentrations of peptide. On day 14 an APIPS test was done using commercial APC (VAVY). After 24 h, antigen-induced T cell activation was measured by IFN-γ ELISA and shown as IFN-γ concentration (pg/ml). The graph represents the mean of duplicate measurements±SEM. LN, lymph nodes; APC, Antigen presenting cell; APIPS, Antigen Processing Independent Presentation System.
as §1, with “3:” for “2:”, “HIP-241125.” for “HIP-115.”, “HIP-241125+HIP-24DG” for “HIP-115”
(§2) FIG. 5: Identification of apitopes within HIP-17GN. DR3 mice were immunized with HIP-17GN and a T cell line was established. Ten days after immunization the LN and spleens were harvested and cultured with different concentrations of peptide (0.1-1-2.5 and 5 μg/ml); 2×10^6 cells/ml APC+1×10^6 cells/ml CD4 T cells per well. At day 7 the cells were re-stimulated with the same concentrations of peptide. On day 14 an APIPS test was done using commercial APC (VAVY). After 24 h, antigen-induced T cell activation was measured by IFN-γ ELISA and shown as OD values. The graph represents the mean of triplicate measurements±SEM. LN, lymph nodes; APC, Antigen presenting cell; APIPS, Antigen Processing Independent Presentation System.
as §2, with “6:” for “5:”, “HIP-12AK.” for “HIP-17GN.”, “HIP-12AK” for “HIP-17GN”, “IFN-γ concentration (pg/ml).” for “OD values.”, “duplicate” for “triplicate”
Antigen-specific clones or TCL were tested for their reactivity to the peptides, presented by fixed or not fixed (fresh) cells (VAVY or MGAR) (=APCs). 5×10^4 cells from the individual clones were cultured with 10 μg/ml peptide and 5×10^4 fixed or fresh APCs. […]

[2] = tested on: LN and spleen cells; test: Immunogenicity of HIP-115 in DR3 mice (IFN-γ ELISA on LN and spleen cultures); format: in vivo; settings: mice immunized with 50 μg HIP-115/CFA; LN and spleens cultured with 10 and 25 μg/ml HIP-115, 72 h
Procedure: FIG. 1: Immunogenicity of HIP-115 in DR3 mice. Mice were immunized with 50 μg HIP-115/CFA or PBS/CFA in the tail base. After 10 days, LN and spleens were harvested and cultured with 10 μg/ml and 25 μg/ml of HIP-115. Supernatants were collected after 72 h. Cell activation was measured by IFN-γ ELISA. (A) Immunogenicity in LN. (B) Immunogenicity in spleens. CFA, Complete Freund's Adjuvant; LN, lymph nodes.
Animal experiments were done to verify the predictions. Mice that were immunized with SAg (or fragments of it) were tested for their capacity to elicit an immune response when probed with the whole protein or parts of it. […] This response can be observed in secondary lymphoid organs, namely spleen (FIG. 1A) and lymph nodes (LN; FIG. 1B).

[3] = molecular target: T1, MHC II molecules present on dendritic cells (DC) (Homo sapiens, UniProt P01903+P01911); test: In vivo presentation experiment, DR2tg mice; settings: 100 μg peptide s.c., CD11c+ cells harvested after 2 hours, co-culture 48 hours
T1 construct: from tissue; host or cells: CD11c+ dendritic cells from spleens of DR2tg mice (DRA*0101 and DRB1*1501 cDNAs under a mouse MHCII promoter, no mouse MHC class II)
Text: FIG. 14: In vivo presentation protocol. Mice are immunized with peptide/CFA and a T cell line is established. For this, ten days after immunization the LN and spleens are harvested and cultured with different concentrations of peptide; 2×10^6 cells/ml APC+1×10^6 cells/ml CD4^+ cells per well. At day 7 the cells are re-stimulated with fresh APC and the same concentrations of peptide. After 14 to 21 days, CD4^+ cells are isolated from these cultures by magnetic bead isolation. These CD4^+ cells are co-cultured with CD11c^+ (dendritic) cells isolated by magnetic bead isolation from spleens of mice s.c. injected with peptide 2 hours before. Control mice receive a s.c. injection of PBS. After 48 hours, supernatant is collected and cytokine response (IFN-γ) is measured. […]
FIG. 17: In vivo presentation of HIP-9FL nested peptides in DR2 mice. […] After 48 hours, supernatant was collected and IFN-γ production was measured by ELISA. […]
DR3tg or DR2tg mice were injected with 100 μg of peptide in 100 μl PBS subcutaneously (s.c.) in the flank. […] After 48 hours, supernatant of these co-cultures was collected and CD4^+ T cell activation was analysed by IFN-γ ELISA (R&D Systems, Abingdon, UK). In a parallel experiment, CD4^+ T cell responses towards peptide added in vitro were assessed to make sure the T cells recognize the peptides presented by the CD11c^+ cells.

[4] = Solubility of peptides; format: physicochemical
Procedure: The solubility of potential apitopes from S—Ag are determined by visual observations and turbidity measurement by UV spectrophotometry at 280 nm. The solubility of the peptides can be modified by adding amino acids ‘GKK’ or ‘KKK’ (or similar) on both the C- and N-terminus of the sequence. Modifications that may be suitable are described in WO2014/072958 (which is hereby incorporated by reference).
For some of these peptides, the parental peptides were insoluble, and solubility is a critical parameter for them to work as a tolerogenic peptide. Several end-terminal modifications can be used and as example used here they were improved by addition of 3 lysines before and after the original peptide sequence (labelled as ‘-KKK’ versions).

T1 sequence (P01903 26-254): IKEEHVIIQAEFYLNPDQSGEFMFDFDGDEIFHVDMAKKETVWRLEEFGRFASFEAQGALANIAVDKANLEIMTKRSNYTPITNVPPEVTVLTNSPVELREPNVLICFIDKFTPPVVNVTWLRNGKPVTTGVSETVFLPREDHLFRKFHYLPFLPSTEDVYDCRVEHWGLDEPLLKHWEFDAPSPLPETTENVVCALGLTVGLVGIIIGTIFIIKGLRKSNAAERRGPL
T1 sequence (P01911 30-266): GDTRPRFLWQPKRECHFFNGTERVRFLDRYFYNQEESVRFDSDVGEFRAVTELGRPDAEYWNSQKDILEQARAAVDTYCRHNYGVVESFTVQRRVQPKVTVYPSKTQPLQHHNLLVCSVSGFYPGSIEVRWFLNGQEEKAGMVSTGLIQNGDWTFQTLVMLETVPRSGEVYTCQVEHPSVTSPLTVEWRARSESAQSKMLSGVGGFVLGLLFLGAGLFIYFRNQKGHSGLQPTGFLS

Row | picked up and presented by MHC II on dendritic cells to peptide-specific T cells (IFN-γ production) [3] | solubility [4] | Substance | behaves as apitope (response to peptide presented by fresh or fixed APC) [1] | immune response against HIP-115 (IFN-γ ELISA) [2]
1 | – | – | MAASGKTSKSEPNHVIFKKISRDKSVTIYLGNRDYIDHVSQV-NH2 [HIP-115] | behave as apitopes | develop an immune response against it
2 | not able to cause this activation | insoluble | AFVEQVANVVL-NH2 [HIP-9K1, AFVEQVANVVL] | – | –
